≈ marks a conversion by molar mass, not a printed value. Like-named read-outs stand apart in the source and are kept apart here.
How the values were obtained:
CYP3A4 = CYP3A4 (Homo sapiens (Human), UniProt P08684); assay: CYP inhibition in human liver microsomes; conditions: read-out: CYP-3A4; human liver microsomes; probe substrate midazolam
How it was run: (§1)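 Pooled human liver microsomes with isoform probe substrates: 2 μM midazolam (CYP3A4, 10 min), 50 μM phenacetin (CYP1A2), 5 μM diclofenac (CYP2C9), both 20 min; CYP2C8 run 20 min, desethylamodiaquine formation. Metabolites (1-hydroxymidazolam, acetaminophen, 4-hydroxydiclofenac) quantified by LC/MS/MS after acetonitrile stop.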

CYP2B6 = CYP2B6 (Homo sapiens (Human), UniProt P20813); assay: CYP inhibition in human liver microsomes; conditions: read-out: CYP-2B6; human liver microsomes; probe substrate bupropion
CYP2B6, sequence (P20813 whole entry): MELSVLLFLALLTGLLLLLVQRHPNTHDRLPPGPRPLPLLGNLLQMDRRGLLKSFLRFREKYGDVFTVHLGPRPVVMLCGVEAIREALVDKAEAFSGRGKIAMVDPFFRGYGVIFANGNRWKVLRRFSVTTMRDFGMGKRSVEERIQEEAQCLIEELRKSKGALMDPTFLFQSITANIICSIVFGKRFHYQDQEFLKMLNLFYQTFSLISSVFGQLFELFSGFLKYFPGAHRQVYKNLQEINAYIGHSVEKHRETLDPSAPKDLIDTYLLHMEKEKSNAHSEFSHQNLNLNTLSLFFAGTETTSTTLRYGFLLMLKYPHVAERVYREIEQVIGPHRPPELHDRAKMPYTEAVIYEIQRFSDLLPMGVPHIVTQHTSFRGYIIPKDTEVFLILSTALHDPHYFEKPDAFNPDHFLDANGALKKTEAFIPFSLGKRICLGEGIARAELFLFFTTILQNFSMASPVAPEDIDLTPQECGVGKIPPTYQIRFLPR

CYP2C9 = CYP2C9 (Homo sapiens (Human), UniProt P11712); assay: CYP inhibition in human liver microsomes; conditions: read-out: CYP-2C9; human liver microsomes; probe substrate diclofenac
CYP2C9, sequence (P11712 whole entry): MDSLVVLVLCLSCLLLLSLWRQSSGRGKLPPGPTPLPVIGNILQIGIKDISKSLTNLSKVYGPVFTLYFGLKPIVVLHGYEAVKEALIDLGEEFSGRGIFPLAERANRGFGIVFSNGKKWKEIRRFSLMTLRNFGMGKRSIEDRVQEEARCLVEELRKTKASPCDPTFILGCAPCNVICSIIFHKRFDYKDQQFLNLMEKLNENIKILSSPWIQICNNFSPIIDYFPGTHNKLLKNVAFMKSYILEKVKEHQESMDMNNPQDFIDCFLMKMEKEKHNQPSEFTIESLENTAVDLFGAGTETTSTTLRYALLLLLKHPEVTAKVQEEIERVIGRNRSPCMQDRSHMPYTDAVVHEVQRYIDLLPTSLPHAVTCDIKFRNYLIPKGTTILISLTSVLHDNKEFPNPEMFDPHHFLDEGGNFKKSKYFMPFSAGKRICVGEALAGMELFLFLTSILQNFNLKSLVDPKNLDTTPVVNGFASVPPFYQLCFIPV
How it was run: as §1

CYP2C8 = CYP2C8 (Homo sapiens (Human), UniProt P10632); assay: CYP inhibition in human liver microsomes; conditions: read-out: CYP-2C8, metabolite desethylamodiaquine
CYP2C8, sequence (P10632 whole entry): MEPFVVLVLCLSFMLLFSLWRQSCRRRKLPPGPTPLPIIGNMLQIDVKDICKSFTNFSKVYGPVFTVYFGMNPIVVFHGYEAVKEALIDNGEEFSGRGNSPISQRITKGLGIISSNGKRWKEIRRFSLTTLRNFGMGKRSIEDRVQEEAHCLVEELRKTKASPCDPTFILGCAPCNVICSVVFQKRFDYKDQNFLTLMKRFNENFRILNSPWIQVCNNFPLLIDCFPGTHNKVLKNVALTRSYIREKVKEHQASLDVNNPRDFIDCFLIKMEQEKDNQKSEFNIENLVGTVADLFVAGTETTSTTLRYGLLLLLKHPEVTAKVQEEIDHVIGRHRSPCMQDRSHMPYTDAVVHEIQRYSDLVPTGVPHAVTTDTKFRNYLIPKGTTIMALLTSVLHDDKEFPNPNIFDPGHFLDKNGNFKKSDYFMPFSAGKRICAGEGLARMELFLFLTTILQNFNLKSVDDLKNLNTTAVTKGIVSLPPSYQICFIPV
How it was run: as §1

CYP2D6 = CYP2D6 (Homo sapiens (Human), UniProt P10635); assay: CYP inhibition in human liver microsomes; conditions: read-out: CYP-2D6; human liver microsomes; probe substrate dextromethorphan
CYP2D6, sequence (P10635 whole entry): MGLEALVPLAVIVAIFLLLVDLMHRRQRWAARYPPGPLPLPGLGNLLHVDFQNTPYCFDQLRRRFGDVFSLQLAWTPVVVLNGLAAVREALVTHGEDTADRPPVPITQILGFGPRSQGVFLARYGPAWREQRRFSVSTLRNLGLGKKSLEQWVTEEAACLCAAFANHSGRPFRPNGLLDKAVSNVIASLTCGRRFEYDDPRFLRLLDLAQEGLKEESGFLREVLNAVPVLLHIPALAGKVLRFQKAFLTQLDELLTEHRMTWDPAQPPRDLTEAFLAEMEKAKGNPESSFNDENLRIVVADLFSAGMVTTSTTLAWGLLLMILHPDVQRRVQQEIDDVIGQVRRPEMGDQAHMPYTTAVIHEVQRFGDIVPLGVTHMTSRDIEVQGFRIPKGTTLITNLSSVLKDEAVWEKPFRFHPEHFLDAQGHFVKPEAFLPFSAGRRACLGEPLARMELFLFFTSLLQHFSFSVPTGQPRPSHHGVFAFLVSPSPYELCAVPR

CYP2C19 = CYP2C19 (Homo sapiens (Human), UniProt P33261); assay: CYP inhibition in human liver microsomes; conditions: read-out: CYP-2C19; human liver microsomes; probe substrate mephenytoin
CYP2C19, sequence (P33261 whole entry): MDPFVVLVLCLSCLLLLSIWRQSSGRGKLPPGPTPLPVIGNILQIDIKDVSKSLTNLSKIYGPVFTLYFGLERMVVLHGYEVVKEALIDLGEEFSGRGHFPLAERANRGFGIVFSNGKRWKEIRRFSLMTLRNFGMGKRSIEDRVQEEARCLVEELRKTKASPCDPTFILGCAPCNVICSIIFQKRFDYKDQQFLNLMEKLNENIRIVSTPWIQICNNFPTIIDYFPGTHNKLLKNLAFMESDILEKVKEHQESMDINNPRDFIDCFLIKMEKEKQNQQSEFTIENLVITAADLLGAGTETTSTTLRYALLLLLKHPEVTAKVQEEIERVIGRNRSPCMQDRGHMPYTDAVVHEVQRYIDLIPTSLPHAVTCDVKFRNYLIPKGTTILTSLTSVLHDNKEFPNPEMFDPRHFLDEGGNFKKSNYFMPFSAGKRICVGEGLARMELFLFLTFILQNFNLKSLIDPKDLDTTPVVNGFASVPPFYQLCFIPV

CYP1A2 = CYP1A2 (Homo sapiens (Human), UniProt P05177); assay: CYP inhibition in human liver microsomes; conditions: read-out: CYP-1A2; human liver microsomes; probe substrate phenacetin
CYP1A2, sequence (P05177 whole entry): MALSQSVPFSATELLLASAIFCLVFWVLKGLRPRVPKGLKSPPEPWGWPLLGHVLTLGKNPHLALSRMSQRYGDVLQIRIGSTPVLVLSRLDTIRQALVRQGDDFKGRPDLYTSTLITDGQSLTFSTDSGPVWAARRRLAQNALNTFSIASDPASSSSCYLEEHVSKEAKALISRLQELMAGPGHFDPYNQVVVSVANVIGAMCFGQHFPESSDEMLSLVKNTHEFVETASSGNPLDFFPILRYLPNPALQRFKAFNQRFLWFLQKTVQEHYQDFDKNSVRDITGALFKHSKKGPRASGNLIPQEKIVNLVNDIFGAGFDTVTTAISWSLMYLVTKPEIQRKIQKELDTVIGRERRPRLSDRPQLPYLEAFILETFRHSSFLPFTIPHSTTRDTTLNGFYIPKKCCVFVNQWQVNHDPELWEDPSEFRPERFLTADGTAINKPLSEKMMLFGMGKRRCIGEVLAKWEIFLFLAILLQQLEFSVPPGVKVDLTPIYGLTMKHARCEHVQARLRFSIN
How it was run: as §1

ATF6 = assay: ERSE ATF6-luciferase reporter assay (thapsigargin-induced ER stress); assay type: cell-based, human; conditions: Homo sapiens, U2OS, thapsigargin-induced ER stress, U2-OS ATF6 luc reporter cells; for inhibition at 1 µM: 8 hr
[1] = In vitro microsomal stability, human liver microsomes; assay type: in vitro ADME; conditions: for half-life at […], 1 µM: human, read-out: T1/2 @ hLM; for half-life at […], 1 µM / microsomal CLint at […], 1 µM: human liver microsomes, pH 7.4; for microsomal CLint at […], 1 µM: intrinsic clearance, read-out: Clint @ hLM; for Rem. @ hLM (%): remaining fraction after 30 min, 1 μM compound, 0.5 mg/mL human liver microsomes, 1 mM NADPH
How it was run: (§2)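 1 μM compound was incubated at 37 °C with 0.5 mg/mL human, mouse or rat liver microsomes and 1 mM NADPH in 100 mM phosphate buffer pH 7.4. Reactions were stopped at 0, 5, 15 and 30 min with cold acetonitrile containing propranolol internal standard.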

[2] = In vitro microsomal stability, mouse liver microsomes; assay type: in vitro ADME; conditions: for half-life at […], 1 µM: mouse, read-out: T1/2 @ mLM; for half-life at […], 1 µM / microsomal CLint at […], 1 µM: mouse liver microsomes, pH 7.4; for microsomal CLint at […], 1 µM: intrinsic clearance, read-out: Clint @ mLM; for Rem. @ mLM (%): remaining fraction after 30 min, 1 μM compound, 0.5 mg/mL mouse liver microsomes, 1 mM NADPH
How it was run: as §2

[3] = In vitro microsomal stability, rat liver microsomes; assay type: in vitro ADME; conditions: for microsomal CLint at […], 1 µM: intrinsic clearance, read-out: Clint @ rLM; for Rem. @ rLM (%): remaining fraction after 30 min, 1 μM compound, 0.5 mg/mL rat liver microsomes, 1 mM NADPH
How it was run: as §2

in vivo = conditions: Balb/c, mouse, po, 10 mg/kg
[4] = Kinetic solubility (nephelometry); assay type: physicochemical; conditions: aqueous buffer, kinetic from dmso stock; PBS pH 7.4, 1% DMSO, 1 hour at 37° C., light scattering at 625 nm
Procedure: Concentration (μM) was then calculated by segmental regression. Amiodarone (#A8423 Aldrich) was used as positive control.

[5] = mouse, in vivo, po, 10 mg/kg
[6] = dose-response 30 μM to 1 nM, read-out: IC50 ATF6-Luc reporter
[7] = 1 μM test compound, read-out: Inh. ATF6-Luc @ 1 μM [%]
[8] = rat, rat liver microsomes, pH 7.4, read-out: T1/2 @ rLM

CYP3A4, sequence (P08684 whole entry, canonical isoform): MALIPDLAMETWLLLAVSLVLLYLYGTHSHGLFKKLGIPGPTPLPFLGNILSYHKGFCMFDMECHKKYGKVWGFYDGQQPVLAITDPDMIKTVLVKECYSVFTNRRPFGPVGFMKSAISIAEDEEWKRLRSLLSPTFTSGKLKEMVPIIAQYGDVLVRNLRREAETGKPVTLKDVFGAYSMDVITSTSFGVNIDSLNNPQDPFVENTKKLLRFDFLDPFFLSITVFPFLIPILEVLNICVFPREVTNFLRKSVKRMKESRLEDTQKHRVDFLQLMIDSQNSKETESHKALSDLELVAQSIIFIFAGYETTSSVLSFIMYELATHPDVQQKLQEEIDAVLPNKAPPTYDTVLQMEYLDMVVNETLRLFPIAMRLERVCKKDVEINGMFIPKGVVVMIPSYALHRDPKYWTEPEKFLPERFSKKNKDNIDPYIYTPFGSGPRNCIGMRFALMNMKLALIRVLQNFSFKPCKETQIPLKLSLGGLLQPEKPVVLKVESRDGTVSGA

## CC(c1ccc(C(F)(F)F)cc1C(F)(F)F)n1cc(NC(=O)c2cnc(-c3ccccn3)s2)cn1 (stereo not shown) [Compound 78, N-(1-(1-(2,4-bis(trifluoromethyl)phenyl)ethyl)-1H-pyrazol-4-yl)-2-(pyridin-2-yl)thiazole-5-carboxamide]
CYP3A4
  IC50: > 50 µM
CYP2B6
  IC50: 4.97 µM
CYP2C9
  IC50: 5.48 µM
CYP2C8
  IC50: 1.8 µM
CYP2D6
  IC50: 2.78 µM
CYP2C19
  IC50: 5.27 µM
CYP1A2
  IC50: 22.4 µM
ATF6; [6]
  IC50: 1 to 10 µM
ATF6; [7]
  inhibition at 1 µM: < 25%
[1]
  half-life at […], 1 µM: 1.59 h
  microsomal CLint at […], 1 µM: 14.5 µL/min/mg
  Rem. @ hLM (%): 80.4%
[2]
  half-life at […], 1 µM: 1.31 h
  microsomal CLint at […], 1 µM: 17.6 µL/min/mg
  Rem. @ mLM (%): 76.8%
[3]; pH 7.4, rat liver microsomes
  microsomal CLint at […], 1 µM: 22.3 µL/min/mg
[3]; [8]
  half-life at […], 1 µM: 1.04 h
[3]
  Rem. @ rLM (%): 71.6%

## C[C@H](c1ccc(C(F)(F)F)cc1C(F)(F)F)n1cc(NC(=O)c2nnc(-c3ccccn3)s2)cn1 [Compound 123, (R)—N-(1-(1-(2,4-bis(trifluoromethyl)phenyl)ethyl)-1H-pyrazol-4-yl)-5-(pyridin-2-yl)-1,3,4-thiadiazole-2-carboxamide]
CYP3A4
  IC50: > 50 µM
CYP2B6
  IC50: 42.9 µM
CYP2C9
  IC50: 31.9 µM
CYP2C8
  IC50: 33.3 µM
CYP2D6
  IC50: > 50 µM
CYP2C19
  IC50: > 50 µM
ATF6; 8 h, read-out: Inh. ATF6-Luc @ 1 μM [%], 1 μM test compound
  inhibition at 1 µM: > 50%
ATF6; read-out: IC50 ATF6-Luc reporter [μM], dose-response 30 μM to 1 nM
  IC50: < 1 µM
In vivo
  AUC(0-inf): 62200 ng·h/mL
  AUC(0-t): 38800 ng·h/mL
  Cmax: 4560 ng/mL
  Tmax: 1 h
  half-life: 19.1 h
[4]
  solubility kinetic at 1 h: 1.17 µM (≈ 0.6 µg/mL)
[1]
  half-life at […], 1 µM: 7.67 h
  microsomal CLint at […], 1 µM: 3 µL/min/mg
  Rem. @ hLM (%): 95.5%
[2]
  half-life at […], 1 µM: 3.22 h
  microsomal CLint at […], 1 µM: 7.2 µL/min/mg
  Rem. @ mLM (%): 89.7%
[3]; pH 7.4, rat liver microsomes
  microsomal CLint at […], 1 µM: 10.7 µL/min/mg
[3]; [8]
  half-life at […], 1 µM: 2.17 h
[3]
  Rem. @ rLM (%): 81.5%
[5]; Balb/c
  AUCExtr [%]: 37.7%
  F [%]: 64.1%
  Vz: 4.43 L/kg
[5]
  Last time point for AUClast: 24 h

## CC(c1ccc(C(F)(F)F)cc1C(F)(F)F)n1cc(NC(=O)c2nnc(-c3cnccn3)s2)cn1 (stereo not shown) [Compound 136, N-(1-(1-(2,4-bis(trifluoromethyl)phenyl)ethyl)-1H-pyrazol-4-yl)-5-(pyrazin-2-yl)-1,3,4-thiadiazole-2-carboxamide]
CYP3A4
  IC50: > 50 µM
CYP2B6
  IC50: > 50 µM
CYP2C9
  IC50: > 50 µM
CYP2C8
  IC50: > 50 µM
CYP2D6
  IC50: > 50 µM
CYP2C19
  IC50: > 50 µM
CYP1A2
  IC50: > 50 µM
ATF6; [6]
  IC50: < 1 µM
ATF6; [7]
  inhibition at 1 µM: > 50%
[4]
  solubility kinetic at 1 h: 2.34 µM (≈ 1.2 µg/mL)
[1]
  half-life at […], 1 µM: 1.57 h
  microsomal CLint at […], 1 µM: 15 µL/min/mg
  Rem. @ hLM (%): 77.8%
[2]
  half-life at […], 1 µM: 1.77 h
  microsomal CLint at […], 1 µM: 13 µL/min/mg
  Rem. @ mLM (%): 78.7%
[3]; pH 7.4, rat liver microsomes
  microsomal CLint at […], 1 µM: 44 µL/min/mg
[3]; [8]
  half-life at 1 μM: 0.528 h
[3]
  Rem. @ rLM (%): 43.9%
